By EC50 is commonly meant the concentration giving half of the maximal effect. High values mean a less potent agent, low ones a more potent agent.

FXR, sequence (Q96RI1 262-486): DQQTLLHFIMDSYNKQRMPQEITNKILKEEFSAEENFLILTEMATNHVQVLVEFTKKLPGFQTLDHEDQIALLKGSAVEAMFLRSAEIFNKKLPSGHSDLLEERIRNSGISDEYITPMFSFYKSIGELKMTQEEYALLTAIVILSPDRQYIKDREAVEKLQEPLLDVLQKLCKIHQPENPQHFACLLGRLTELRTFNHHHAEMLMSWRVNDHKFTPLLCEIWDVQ

One assay addresses FXR (Homo sapiens (Human), UniProt Q96RI1). Briefly: transient human FXR/Gal4-luciferase reporter assay. It is filed as cell-based.
Settings: not given
In outline:
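HEK293 cells stably carrying a 5×Gal4 response element–firefly luciferase reporter were transiently transfected overnight with a Gal4 DBD–human FXR LBD fusion plasmid. Compound was added in DMSO and cells were incubated overnight at 37 °C, 5% CO2. Activity was read as Steady-Glo luminescence.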
Consider `COc1ncc(-c2ccnc(N(CC34CCC(c5noc(C(C)(C)C)n5)(CC3)CC4)C(=O)C34CC(F)(C3)C4)c2)cn1` [Example 538, N-((4-(5-(tert-butyl)-1,2,4-oxadiazol-3-yl)bicyclo[2.2.2]octan-1-yl)methyl)-3-fluoro-N-(4-(2-methoxypyrimidin-5-yl)pyridin-2-yl)bicyclo[1.1.1]pentane-1-carboxamide], for which a half-maximal response (EC50) required 121 nM.

In the case of `CC(C)(C)c1nc(C23CCC(CN(C(=O)C45CC(F)(C4)C5)c4cncc(-c5ccc6[nH]c(=O)oc6c5)c4)(CC2)CC3)no1` [Example 479, N-((4-(5-(tert-butyl)-1,2,4-oxadiazol-3-yl)bicyclo[2.2.2]octan-1-yl)methyl)-3-fluoro-N-(5-(2-oxo-2,3-dihydrobenzo[d]oxazol-6-yl)pyridin-3-yl)bicyclo[1.1.1]pentane-1-carboxamide], the EC50 stood at 367 nM.

`CCOc1ccc(-c2cncc(N(CC34CCC(c5nc(C(C)(C)C)no5)(CC3)CC4)C(=O)C34CC(F)(C3)C4)c2)cc1` [Example 476, N-((4-(3-(tert-butyl)-1,2,4-oxadiazol-5-yl)bicyclo[2.2.2]octan-1-yl)methyl)-N-(5-(4-ethoxyphenyl)pyridin-3-yl)-3-fluorobicyclo[1.1.1]pentane-1-carboxamide] registered an EC50 of 560 nM.

Still in this assay, the particulars now being: Gal4-hFXR fusion construct, HEK293 reporter cells; response relative to 8 μM GW-4064.
For `CC(C)c1noc(C23CCC(CN(C(=O)C45CC(F)(C4)C5)c4cccc(-c5cnc(C(F)(F)F)nc5)c4)(CC2)CC3)n1` [Example 384, 3-fluoro-N-((4-(3-isopropyl-1,2,4-oxadiazol-5-yl)bicyclo[2.2.2]octan-1-yl)methyl)-N-(3-(2-(trifluoromethyl)pyrimidin-5-yl)phenyl)bicyclo[1.1.1]pentane-1-carb oxamide], a half-maximal effect (EC50) was put at 184 nM.

The molecule `O=C(N(CC12CCC(c3cc(C(F)(F)F)ccn3)(CC1)CC2)c1cccc(-c2ccc(NS(=O)(=O)C3CC3)cc2)c1)C12CC(F)(C1)C2` [Example 354, N-(4′-(Cyclopropanesulfonamido)-[1,1′-biphenyl]-3-yl)-3-fluoro-N-((4-(4-(trifluoromethyl)pyridin-2-yl)bicyclo[2.2.2]octan-1-yl)methyl)bicyclo[1.1.1]pentane-1-carboxamide] displayed an EC50 of 489 nM.

The molecule `CCOc1ccc(-c2cccc(N(CC34CCC(c5noc(C6(C)CC6)n5)(CC3)CC4)C(=O)C34CC(F)(C3)C4)c2)cn1` [Example 401, N-(3-(6-ethoxypyridin-3-yl)phenyl)-3-fluoro-N-((4-(5-(1-methylcyclopropyl)-1,2,4-oxadiazol-3-yl)bicyclo[2.2.2]octan-1-yl)methyl)bicyclo[1.1.1]pentane-1-carboxamide] came in with an EC50 of 42 nM.

The molecule `CCOc1ncc(-c2ccnc(N(CC34CCC(c5nc(C6CC6)no5)(CC3)CC4)C(=O)C34CC(F)(C3)C4)c2)cn1` [Example 548, N-((4-(3-cyclopropyl-1,2,4-oxadiazol-5-yl)bicyclo[2.2.2]octan-1-yl)methyl)-N-(4-(2-ethoxypyrimidin-5-yl)pyridin-2-yl)-3-fluorobicyclo[1.1.1]pentane-1-carboxamide] came in with an EC50 of 111 nM.

As to `O=C(N(CC12CCC(c3nc(C4CC4)no3)(CC1)CC2)c1cccc(-c2ccc(F)cn2)c1)C12CC(F)(C1)C2` [Example 287, N-((4-(3-cyclopropyl-1,2,4-oxadiazol-5-yl)bicyclo[2.2.2]octan-1-yl)methyl)-3-fluoro-N-(3-(5-fluoropyridin-2-yl)phenyl)bicyclo[1.1.1]pentane-1-carboxamide], the response was half-maximal at 316 nM (EC50).

`CC(C)Oc1ccc(-c2cc(N(CC34CCC(c5noc(C6(F)CC6)n5)(CC3)CC4)C(=O)NC(C)(C)C)ccc2F)cc1` [Example 586, 3-(tert-butyl)-1-(6-fluoro-4′-isopropoxy-[1,1′-biphenyl]-3-yl)-1-((4-(5-(1-fluorocyclopropyl)-1,2,4-oxadiazol-3-yl)bicyclo[2.2.2]octan-1-yl)methyl)urea] gave an EC50 of 36 nM.

In turn, `Cc1nc2ccc(-c3cccc(N(CC45CCC(c6nc(C7CC7)no6)(CC4)CC5)C(=O)C4CC(F)(F)C4)c3)cc2s1` [Example 554, N-((4-(3-cyclopropyl-1,2,4-oxadiazol-5-yl)bicyclo[2.2.2]octan-1-yl)methyl)-3,3-difluoro-N-(3-(2-methylbenzo[d]thiazol-6-yl)phenyl)cyclobutane-1-carboxamide] registered an EC50 of 232 nM.

As for `Cc1nc2c(C)cc(-c3cccc(N(CC45CCC(c6nc(C7CC7)no6)(CC4)CC5)C(=O)C45CC(F)(C4)C5)c3)cn2n1` [Example 265, N-((4-(3-cyclopropyl-1,2,4-oxadiazol-5-yl)bicyclo[2.2.2]octan-1-yl)methyl)-N-(3-(2,8-dimethyl-[1,2,4]triazolo[1,5-a]pyridin-6-yl)phenyl)-3-fluorobicyclo[1.1.1]pentane-1-carboxamide], the EC50 was 510 nM.

`O=C(N(CC12CCC(c3nc(C4CC4)no3)(CC1)CC2)c1cccc(-c2cccn3ccnc23)c1)C12CC(F)(C1)C2` [Example 330, N-((4-(3-cyclopropyl-1,2,4-oxadiazol-5-yl)bicyclo[2.2.2]octan-1-yl)methyl)-3-fluoro-N-(3-(imidazo[1,2-a]pyridin-8-yl)phenyl)bicyclo[1.1.1]pentane-1-carboxamide] had an EC50 of 392 nM.

In the case of `COc1ccc(-c2cccc(N(CC34CCC(c5nc(C6CC6)no5)(CC3)CC4)C(=O)C34CC(F)(C3)C4)c2)cc1OC` [Example 301, N-((4-(3-cyclopropyl-1,2,4-oxadiazol-5-yl)bicyclo[2.2.2]octan-1-yl)methyl)-N-(3′,4′-dimethoxy-[1,1′-biphenyl]-3-yl)-3-fluorobicyclo[1.1.1]pentane-1-carboxamide], the EC50 came out at 519 nM.

Turning to `CC(C)(C)c1nc(C23CCC(CN(C(=O)C45CC(F)(C4)C5)c4cccc(-c5cnc6nc(C7CC7)sc6c5)c4)(CC2)CC3)no1` [Example 458, N-((4-(5-(tert-butyl)-1,2,4-oxadiazol-3-yl)bicyclo[2.2.2]octan-1-yl)methyl)-N-(3-(2-cyclopropylthiazolo[4,5-b]pyridin-6-yl)phenyl)-3-fluorobicyclo[1.1.1]pentane-1-carboxamide], the EC50 was 251 nM.

As to `Cn1nc(C23CCC(CN(C(=O)C45CC(F)(C4)C5)c4cccc(-c5cnc6nc(C7CC7)sc6c5)c4)(CC2)CC3)cc1C1CC1` [Example 410, N-((4-(5-cyclopropyl-1-methyl-1H-pyrazol-3-yl)bicyclo[2.2.2]octan-1-yl)methyl)-N-(3-(2-cyclopropylthiazolo[4,5-b]pyridin-6-yl)phenyl)-3-fluorobicyclo[1.1.1]pentane-1-carboxamide], the EC50 is 465 nM.

In turn, `CCOc1ncc(-c2cccc(N(CC34CCC(c5nc(C(C)C)no5)(CC3)CC4)C(=O)C34CC(F)(C3)C4)c2)cn1` [Example 374, N-(3-(2-ethoxypyrimidin-5-yl)phenyl)-3-fluoro-N-((4-(3-isopropyl-1,2,4-oxadiazol-5-yl)bicyclo[2.2.2]octan-1-yl)methyl)bicyclo[1.1.1]pentane-1-carboxamide] had a concentration for a half-maximal effect (EC50) of 44 nM.

Molecule `CC(C)c1noc(C23CCC(CN(C(=O)C45CC(F)(C4)C5)c4cccc(-c5cnc(C6CC6)nc5)c4)(CC2)CC3)n1` [Example 385, N-(3-(2-cyclopropylpyrimidin-5-yl)phenyl)-3-fluoro-N-((4-(3-isopropyl-1,2,4-oxadiazol-5-yl)bicyclo[2.2.2]octan-1-yl)methyl)bicyclo[1.1.1]pentane-1-carboxamide] registered an EC50 of 35 nM.

`CC1(c2nc(C34CCC(CN(C(=O)C56CC(F)(C5)C6)c5cccc(-c6ccc(NS(=O)(=O)C7CC7)cc6)c5)(CC3)CC4)no2)CC1` [Example 397, N-(4′-(cyclopropanesulfonamido)-[1,1′-biphenyl]-3-yl)-3-fluoro-N-((4-(5-(1-methylcyclopropyl)-1,2,4-oxadiazol-3-yl)bicyclo[2.2.2]octan-1-yl)methyl) bicyclo[1.1.1]pentane-1-carboxamide] showed an EC50 of 183 nM.

The molecule `O=C(N(CC12CCC(c3nc(C4CC4)no3)(CC1)CC2)c1cccc(-c2ncc(OC(F)F)cn2)c1)C12CC(F)(C1)C2` [Example 335, N-((4-(3-cyclopropyl-1,2,4-oxadiazol-5-yl)bicyclo[2.2.2]octan-1-yl)methyl)-N-(3-(5-(difluoromethoxy)pyrimidin-2-yl)phenyl)-3-fluorobicyclo[1.1.1]pentane-1-carboxamide] registered an EC50 of 26 nM.

In the case of `CC(C)(C)c1nc(C23CCC(CN(C(=O)C45CC(F)(C4)C5)c4cccc(-c5cnc(C(F)(F)F)nc5)c4)(CC2)CC3)no1` [Example 443, N-((4-(5-(tert-butyl)-1,2,4-oxadiazol-3-yl)bicyclo[2.2.2]octan-1-yl)methyl)-3-fluoro-N-(3-(2-(trifluoromethyl)pyrimidin-5-yl)phenyl)bicyclo[1.1.1]pentane-1-carboxamide], the EC50 is 357 nM.

`CCOc1cnc(-c2cccc(N(CC34CCC(c5nc(C(C)C)no5)(CC3)CC4)C(=O)C34CC(F)(C3)C4)c2)nc1` [Example 395, N-(3-(5-ethoxypyrimidin-2-yl)phenyl)-3-fluoro-N-((4-(3-isopropyl-1,2,4-oxadiazol-5-yl)bicyclo[2.2.2]octan-1-yl)methyl)bicyclo[1.1.1]pentane-1-carboxamide] registered an EC50 of 156 nM.

For the molecule `O=C(N(CC12CCC(c3ccc(C(F)(F)F)cn3)(CC1)CC2)c1cccc(-c2ccc(OC(F)F)cn2)c1)C12CC(F)(C1)C2` [Example 495, N-(3-(5-(difluoromethoxy)pyridin-2-yl)phenyl)-3-fluoro-N-((4-(5-(trifluoromethyl)pyridin-2-yl)bicyclo[2.2.2]octan-1-yl)methyl)bicyclo[1.1.1]pentane-1-carboxamide], the EC50 was 271 nM.

As for `CCOc1ccc(-c2cccc(N(CC34CCC(c5nc(C6CC6)no5)(CC3)CC4)C(=O)C34CC(F)(C3)C4)c2)nn1` [Example 283, N-((4-(3-cyclopropyl-1,2,4-oxadiazol-5-yl)bicyclo[2.2.2]octan-1-yl)methyl)-N-(3-(6-ethoxypyridazin-3-yl)phenyl)-3-fluorobicyclo[1.1.1]pentane-1-carboxamide], the EC50 worked out at 234 nM.

The values above are taken from patent publication US11254663B2 (BRISTOL-MYERS SQUIBB COMPANY, priority 2019, dated 2022).
